{
  "source": "ChEMBL document CHEMBL1133488",
  "about": "(Bioorg Med Chem Lett, 2000)",
  "biological_target": "T1, Scytalone dehydratase (Magnaporthe oryzae (strain 70-15 / FGSC 8958) (Rice blast fungus)(Pyricularia oryzae), UniProt P56221)",
  "T1 sequence (P56221 whole entry)": "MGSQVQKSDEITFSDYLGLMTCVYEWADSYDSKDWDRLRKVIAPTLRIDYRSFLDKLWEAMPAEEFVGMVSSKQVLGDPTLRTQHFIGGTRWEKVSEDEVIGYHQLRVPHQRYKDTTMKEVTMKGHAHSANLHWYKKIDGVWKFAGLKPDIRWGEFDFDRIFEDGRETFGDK",
  "test": "The compound was evaluated for its binding affinity against wild type scytalone dehydratase (SD)",
  "set-up": "species or system Pyricularia grisea",
  "data": [
    {"smiles": "CC(C)NC(=O)c1cc(F)ccc1O", "values": [
      {"measurement": "Ki", "result": 450, "unit": "nM"}
    ]}
  ]
}
